Values joined by “and” are separate entries in the source; they are usually repeats but may differ in a detail not shown here. Equal values may be shown once. Read-outs that look alike come from different tables or passages of the source. Marks after values point to notes of the source that are not given here.
How the values were obtained:
Nav channels [1] = experiment: CBD inhibition of Nav channels; format: cell-based; settings: Table 1, from literature CBD values
Nav channels [2] = settings: ref Ghovanloo, Shuart, et al. (2018), cited from earlier work
human Nav1.7 channels [3] = molecular target: T1, human Nav1.7 channels (Homo sapiens, UniProt Q15858); experiment: Activation / peak conductance protocol, automated patch-clamp; format: cell-based
T1 sequence (Q15858 whole entry): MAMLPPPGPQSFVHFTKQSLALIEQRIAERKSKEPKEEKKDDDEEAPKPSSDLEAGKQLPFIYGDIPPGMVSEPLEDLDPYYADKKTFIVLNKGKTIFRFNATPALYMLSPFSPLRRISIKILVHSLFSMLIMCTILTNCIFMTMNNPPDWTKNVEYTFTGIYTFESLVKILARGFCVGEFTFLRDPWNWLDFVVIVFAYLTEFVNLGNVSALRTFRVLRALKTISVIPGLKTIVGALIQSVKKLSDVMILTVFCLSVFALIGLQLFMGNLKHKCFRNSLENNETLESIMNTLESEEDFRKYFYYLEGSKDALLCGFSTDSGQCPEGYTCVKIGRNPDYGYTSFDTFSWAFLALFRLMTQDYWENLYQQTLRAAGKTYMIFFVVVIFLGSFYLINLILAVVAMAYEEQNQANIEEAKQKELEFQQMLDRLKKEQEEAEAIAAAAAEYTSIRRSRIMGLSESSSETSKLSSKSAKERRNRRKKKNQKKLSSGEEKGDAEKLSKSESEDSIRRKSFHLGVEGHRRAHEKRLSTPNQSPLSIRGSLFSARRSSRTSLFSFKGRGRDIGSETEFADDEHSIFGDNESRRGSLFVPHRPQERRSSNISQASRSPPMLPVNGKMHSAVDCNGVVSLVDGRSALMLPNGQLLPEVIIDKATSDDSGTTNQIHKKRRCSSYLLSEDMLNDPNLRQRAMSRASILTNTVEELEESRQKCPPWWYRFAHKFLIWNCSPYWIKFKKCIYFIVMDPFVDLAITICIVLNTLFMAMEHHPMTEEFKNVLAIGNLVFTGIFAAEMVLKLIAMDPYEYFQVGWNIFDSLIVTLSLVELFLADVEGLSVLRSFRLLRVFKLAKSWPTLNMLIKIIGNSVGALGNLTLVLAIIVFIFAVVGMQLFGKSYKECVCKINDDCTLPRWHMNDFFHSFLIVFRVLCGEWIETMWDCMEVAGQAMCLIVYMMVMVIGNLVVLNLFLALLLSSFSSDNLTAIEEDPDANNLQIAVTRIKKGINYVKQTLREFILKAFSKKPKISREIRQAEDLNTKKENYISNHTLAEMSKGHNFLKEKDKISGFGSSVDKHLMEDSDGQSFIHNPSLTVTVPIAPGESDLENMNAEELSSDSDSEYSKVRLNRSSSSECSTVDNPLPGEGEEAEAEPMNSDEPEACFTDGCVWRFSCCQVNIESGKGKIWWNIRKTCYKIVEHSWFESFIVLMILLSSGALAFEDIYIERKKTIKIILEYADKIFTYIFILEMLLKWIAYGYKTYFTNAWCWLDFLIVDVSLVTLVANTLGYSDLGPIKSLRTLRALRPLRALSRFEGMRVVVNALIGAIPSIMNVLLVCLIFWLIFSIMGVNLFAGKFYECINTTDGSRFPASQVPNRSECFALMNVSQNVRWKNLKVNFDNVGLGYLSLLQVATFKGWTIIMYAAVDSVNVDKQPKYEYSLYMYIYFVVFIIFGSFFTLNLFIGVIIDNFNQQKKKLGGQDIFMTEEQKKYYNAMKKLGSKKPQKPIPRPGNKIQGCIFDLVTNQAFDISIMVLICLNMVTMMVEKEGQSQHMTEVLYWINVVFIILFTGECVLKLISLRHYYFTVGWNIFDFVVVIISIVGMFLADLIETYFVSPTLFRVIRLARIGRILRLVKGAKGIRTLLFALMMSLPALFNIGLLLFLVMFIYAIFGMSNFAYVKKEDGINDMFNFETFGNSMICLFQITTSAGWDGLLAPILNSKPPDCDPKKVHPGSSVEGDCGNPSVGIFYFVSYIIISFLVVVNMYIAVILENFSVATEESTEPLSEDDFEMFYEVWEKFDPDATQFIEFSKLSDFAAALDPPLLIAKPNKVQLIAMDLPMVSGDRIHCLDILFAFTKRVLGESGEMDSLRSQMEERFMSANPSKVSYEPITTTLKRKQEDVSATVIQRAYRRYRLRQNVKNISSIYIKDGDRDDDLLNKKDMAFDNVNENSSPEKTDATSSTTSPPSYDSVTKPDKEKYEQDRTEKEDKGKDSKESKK
T1 sequence (Q07699 19-218 partner): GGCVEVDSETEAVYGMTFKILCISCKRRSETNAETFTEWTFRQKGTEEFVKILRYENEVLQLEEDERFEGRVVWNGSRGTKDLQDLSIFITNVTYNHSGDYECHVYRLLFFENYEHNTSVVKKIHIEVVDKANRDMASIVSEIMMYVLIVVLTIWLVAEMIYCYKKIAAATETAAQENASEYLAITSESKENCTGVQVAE

[4] = system: voltage-gated sodium (Nav) channels in rat CA1 hippocampal neurons; settings: cited from earlier work
human Nav1.7 channels [5] = molecular target: T1, human Nav1.7 channels; experiment: State-dependent inhibition of sodium currents, automated patch-clamp; format: cell-based
human Nav1.7 channels [6] = molecular target: T1, human Nav1.7 channels; experiment: Steady-state inactivation; format: cell-based
[7] = system: TTX-resistant Nav current in rat DRG neurons; format: cell-based
[8] = system: TTX-sensitive Nav channels; settings: read-out: IC50 of TTX-sensitive channels; cited from earlier work

## C=C(C)[C@@H]1CCC(C)=C[C@H]1c1c(O)cc(CCCCC)cc1O [CBD, cannabidiol]
Nav channels [1]
  Concentration/fold state dependence (ratio): 1.1
Nav channels [2]; Table 1
  State dependence: ~10^a
Nav channels [2]; read-out: IC50 on Nav channels, Table 1
  IC50: 1 to 12 µM
Nav channels [2]
  State dependence: ~ 10 fold

## CCCCCc1cc(O)c(C/C=C(\C)CCC=C(C)C)c(O)c1 [CBG, cannabigerol]
Human Nav1.7 channels [3]
  IC50: ~3.5 µM
  Reduction in sodium current density: ~ 90%
  V1/2 of activation: −46.4 ± 5.6 mV
  Vehicle Gmax left: ~ 10%
  slope of activation: 5.2 ± 2.2
[4]
  Effect on Nav current density and action potential frequency: decreases current density
Human Nav1.7 channels [5]
  Concentration/fold state dependence (ratio): 2
  Fold less potent than CBD in inhibiting Nav channels: about 2 fold
  Hill slope: 1.2 ± 0.3 and 2.3 ± 0.5 and 1.6 ± 0.4
  Hill slopes (range across holding potentials): 1.2–2.3
  Ki: 2 to 20 µM
  Nav channels prevented from opening: ~ 30%
  State dependence: ~10
  State dependence (inactivated vs resting state potency): ~ 10 fold and ~ 11 fold
  average Hill-slope: ~ 2
Human Nav1.7 channels [5]; IC50 (range across holding potentials), holding potentials −110 to −90 mV
  IC50: 4.6 to 18.8 µM
Human Nav1.7 channels [5]; IC50, holding potential −90 mV, pulse 180 (3 min), mean ± SEM
  IC50: 4.6 ± 1.1 µM
Human Nav1.7 channels [5]; IC50, holding potential −100 mV, pulse 180 (3 min), mean ± SEM
  IC50: 9.3 ± 1 µM
Human Nav1.7 channels [5]; IC50, holding potential −110 mV, pulse 180 (3 min), mean ± SEM
  IC50: 18.8 ± 2.9 µM
Human Nav1.7 channels [6]
  Hyperpolarization of voltage dependence of SSI: ~ 12 mV
  Percentage shift of inactivation V1/2 relative to vehicle: about 25%
  Rate time constant of open-state inactivation vs vehicle: did not differ significantly
Human Nav1.7 channels [6]; IC50 for V1/2 (inactivation shift), Hill fit of normalized data, estimated
  IC50: ~13.2 µM
Human Nav1.7 channels [6]; read-out: Inhibition of current at the test pulse
  inhibition at 15 µM: ~90%
[7]
  Inhibition of TTX-resistant current: ~ 50%

## NC1=N[C@H](O)[C@H]2[C@H]3O[C@]4(O)O[C@@H]([C@@H](O)[C@@]2(N1)[C@@H]4O)[C@]3(O)CO [TTX, tetrodotoxin]
[8]
  IC50: 0.01 to 0.03 µM

From article PMC13012276 (British journal of pharmacology, 2022)
